Square brackets hold non-standard residues; d marks the D form. Peptide text beside a SMILES is read from it. Gly(N(CH2)2(3-indolyl)) = O=C(O)CNCCc1c[nH]c2ccccc12; Nspe = C[C@H](NCC(=O)O)c1ccccc1; Nlys = NCCCCNCC(=O)O
Columns and labels:
Format in all cases: cell-based
[1] = tested on: E. coli ATCC 25922; assay: Killing kinetics; conditions: 4 × MIC, E. coli ATCC 25922, MHB2, 37 °C, CFU counting, triplicates
Experimental: structure of peptoids. SAXS data on peptoids in aqueous environment at different peptoid concentrations (indicated in legends), plotted together with best fit. a) 11 b) 29.
14. In vitro biological assays
The kinetics of antimicrobial activity against E. coli (ATCC 25922) were assessed at a […]
Briefly, an overnight culture of bacteria was diluted at mid log-phase bacteria (2–5 × 10^5 cfu/mL) and incubated with peptoid with desired concentration in MHB2. The bacterial suspension was added to a 96-well polypropylene u- bottomed plate containing the peptoid. The plate was incubated without shaking at 37 °C for 4 h. Samples (20 μl) were taken at time 0.5, 1, 2 and 4 h and diluted in ice PBS buffer from which 100 μl was plated on LB agar plates. The plates were incubated for 18–24 hours at 37 °C and colony forming units (CFU) were counted. The experiment was conducted triplicates, and a curve was plotted between CFU and time (h).
The ability of peptoids to increase the permeability of the outer membrane of Gram-negative bacteria was determined by measuring the incorporation of the NPN fluorescent dye into the outer membrane of E. coli ATCC 25922. Bacterial cells were suspended to a final concentration of OD600 = 0.05 in 5 mM HEPES buffer, pH 7.2, containing 5 mM KCN. Then […]
(1 picture or pasted object on this page, not shown here)

[2] = tested on: E. coli ATCC 25922; assay: Bacterial respiration assay (oxygen consumption rate); conditions: at MIC concentration, Seahorse XFe96, M9 + 10 mM glucose
Experimental: 11. Bacterial respiration assay
Figure S12. Real-time changes in oxygen consumption rate (OCR, in picomoles of molecular oxygen per minute) in response to treatment with peptoid 29, ampicillin (Amp), and chloramphenicol (Cam) in E. coli measured on a Seahorse XFe 96 extracellular flux analyzer.
OCR changes in cells treated with 29 over time (2.5 min intervals). b) Comparison of OCR responses induced by 29, Amp, and Cam treatment detected at 2.5 min intervals. The vertical line with azure color indicates the injection point of each antibiotic into the cultures. All data represent the mean ± SEM of 5-8 replicates.
Bacterial respiration assays
Cellular oxygen consumption rate (OCR) of E. coli ATCC 25922 was measured using a Seahorse XFe96 Extracellular Flux Analyzer (Agilent) as published previously.[9] Briefly, after overnight culture in LB, bacterial cells were diluted 1:200 into fresh M9 media (M6030, Sigma) and incubated for an additional 3 h at 37 °C. To conduct the measurements, bacteria were diluted to OD600 of 0.02 in M9 supplemented with 10 mM glucose. 90 μL of this cell suspension was loaded into a 96-well microplate precoated with poly-D-lysine (100 μg/mL, Sigma). […] OCR values were quantified every 2.5 min (mix and measure for 30 sec and 2 min, respectively) for an additional 48 cycles, and normalized to bacterial density […]

[3] = tested on: HaCaT human keratinocytes; assay: MTS cytotoxicity assay; conditions: 24 h exposure in DMEM, concentration killing 50% of cells
Experimental: 4. Cell culture and cytotoxicity test using MTS assay
(Seoul, South Korea), human keratinocytes (HaCaT) were provided by the Skin Research Institute R&D Center of Amore Pacific Company (Yongin, South Korea). All cells were grown in Dulbecco's modified Eagle’s medium (DMEM) supplemented with 10% fetal bovine serum at 37 °C in an atmosphere containing 5% CO2. The 3-(4,5-dimethylthiazol-2- […]
assays were used to determine the effects of peptoids on cell growth.[4] Aliquots (100 µL) of media containing 1.3×10^4 MRC-5 cells/mL or 3×10^4 HaCaT cells/mL were distributed into each well of a 96-well plate (Eppendorf, Hamburg, Germany). The cells were allowed to attach and were grown in a humidified atmosphere containing 5% CO2 at 37 °C for 24 h.
When the cell density reached approximately 70% confluency, the medium was replaced with serial dilutions of the peptoid stock in DMEM and incubated for an additional 24 h. […] The MTS-formazan products in viable cells were measured at 490 nm using a microplate reader, and the percentage of cell viability (%) was calculated by comparing readings to the values of untreated wells. Percentage values of cell viability were calculated as A/(A control)×100, where A is the absorbance of the test well and A control is the average absorbance of wells containing untreated cells. […]

Compound	time to complete eradication of bacteria [1]	time after which OCR converged to zero [2]	LC50 HaCaT [3]
C[C@@H](c1ccccc1)N(CC(=O)N(CCCCN)CC(=O)N(CCc1c[nH]c2ccccc12)CC(=O)N(CCc1c[nH]c2ccccc12)CC(N)=O)C(=O)CN(CCCCN)C(=O)CN(CCCCN)C(=O)CN(C(=O)CN(C(=O)CN(CCCCN)C(=O)CN(C(=O)CN(C(=O)CNCCCCN)[C@@H](C)c1ccccc1)[C@@H](C)c1ccccc1)[C@@H](C)c1ccccc1)[C@@H](C)c1ccccc1 [peptoid 29] (H-[Nlys][Nspe][Nspe][Nlys][Nspe][Nspe][Nlys][Nlys][Nspe][Nlys][Gly(N(CH2)2(3-indolyl))][Gly(N(CH2)2(3-indolyl))]-NH2)	4 h	30 min	
C[C@@H](c1ccccc1)N(CC(N)=O)C(=O)CN(C(=O)CN(CCCCN)C(=O)CN(C(=O)CN(C(=O)CN(CCCCN)C(=O)CN(C(=O)CN(C(=O)CN(CCCCN)C(=O)CN(C(=O)CN(C(=O)CNCCCCN)[C@@H](C)c1ccccc1)[C@@H](C)c1ccccc1)[C@@H](C)c1ccccc1)[C@@H](C)c1ccccc1)[C@@H](C)c1ccccc1)[C@@H](C)c1ccccc1)[C@@H](C)c1ccccc1 [peptoid 1, reference compound] (H-[Nlys][Nspe][Nspe][Nlys][Nspe][Nspe][Nlys][Nspe][Nspe][Nlys][Nspe][Nspe]-NH2)			7.3 µM
